Measurements as given in patent US20030148259A1, “Method of identifying insulin secretion stimulating compounds, and the use of such compounds in treating insulin-secretion related disorders” (priority 2002, published 2003).
Ends that are not written are not given here.

Legend:
INS-1E cells [1] = assay: Confocal microscopy imaging of [Ca2+]i in fluo-3 loaded cells; type: cell-based, rat
Description: INS-1E cells were incubated in medium containing 5 mM glucose and 5 μM fluo-3 AM for 30 minutes followed by 10 min in medium without fluo-3Cover slips were mounted in a superfusion chamber, which was superfused with physiological solution at 3 ml/min. A three-way solenoid valve system allowed for rapid exchange of solutions. The dead space of the system (from valve inlet to chamber) was -0.5 ml. The flow was increased to 6 ml/min 15 s prior to switching from control solution to experimental solutions and reduced back to 3 ml/min after return to normal solution. [Ca^2+]1 were recorded with a BioRad laser scanning confocal system (BioRad MRC 1024) attached to a Nikon Diaphot 200 inverted microscope equipped with Nikon Plan Apo 60×1.4 NA oil immersion objective. Fluo-3 was excited at 488 nm (15 mW krypton-argon mixed gas laser, intensity attenuated to 3%) and the emitted light was collected through a 522 nm narrow band filter. Images were obtained with the iris closed to the minimum size that was compatible with good image quality. For each image, 3× Kalman averaging was used. Images were stored and converted to pseudo-color images using Scion Image software (Scion Corporation, Maryland).
Ratios were calculated using the initial fluorescence F0, and the observed fluorescence F using the equation R=F/F0, and these ratios were subsequently converted into [Ca^2+]i using the equation: [Ca^2+]i=RxKD/((KD/resting [Ca^2+]i)−R). […] Resting [Ca^2+]i in these cells under the conditions of experiment was 35 nM. All experiments were carried out at room temperature (25° C.).

mouse islets = assay: Insulin release from perifused islets (radio immunoassay); type: cell-based; settings: for stimulation of insulin secretion from islets: 2.5 mM caffeine, 6 μM MBED, FIG. 6; for insulin secretion rate: 40-min stimulation
Description: Normal lean mice (BALB/c, Bomholtgard, Ry, Denmark) weighing 20-25 g were starved overnight and islets isolated by collagenase digestion and dextran purification method (Shi, C. L., Cell Transplant. 6, 33-37 (1997)). Islets were then cultured overnight in RPMI 1640 medium containing 10% FBS, 11.2 mM glucose, 60 i.u./ml penicillin and 60 μg/ml gentamicin, in a water-saturated atmosphere of air and 5% CO2.
Groups of 50 islets were transferred to a perifusion chamber housed in an infant incubator at 37° C. They were perifused at a rate of 1 ml/ min with Krebs-Ringer bicarbonate buffer supplemented with 20 mM HEPES, 0.1% BSA, glucose and drugs as required. The buffer was continuously gassed with 95% 02 and 5% CO2. The islets were perifused for 30 min with this medium containing 2 mM glucose, followed by a 40-min stimulation with 11.2 mM glucose alone (control), or 11.2 mM glucose plus drugs. During the last five minutes of perifusion with 2 mM glucose, three samples of effluent were collected to measure basal rate of insulin secretion. After switching to the 11.2 mM glucose the effluent was sampled every minute for the first five minutes and then at the intervals of 5 minutes. The average rate of insulin secretion (ng/min/50 islets) was calculated by integrating individual perifusion profile. Insulin was measured by radio immunoassay using crystalline mouse insulin as standard (Shi, C. L. cited above).

S5 cells = assay: Screening for CICR by periodic amplification of Ca2+ signals in S5 cells; type: cell-based, rat; settings: MBED 50 μM, FIG. 4
Description: A new type of β-cell, called the S5 cell, which is particularly suitable for use in screening CICR-active drugs in β-cells has been developed by the present inventor. The S5 cells can be obtained from INS-1E cells by adapting the latter to culture conditions where fetal bovine serum is reduced to 2.5% and 2-mercaptoethanol is increased to 500 μM. The S5 cells are more differentiated, more slowly growing than ordinary insulinoma cells, and performs more like normal β-cells.
The S5 cells used in the examples below were obtained by adapting the cells to the above culture conditions over 37 passages. These cells were cultured in RPMI 1640, with L-Glutamine (Life Technologies: Catalog. No. 21875-034), supplemented with HEPES (10 mM, Life Technologies. Catalog. No. 15630-049), and sodium pyruvate (1 mM, Life Technologies. Catalog No. 11360-039). 2.5% (v/v) heat-inactivated fetal bovine serum was added to this medium and the medium was aliquoted in 50 ml tubes. To this medium, 500 μM 2-mercaptoethanol (Life Technologies. Catalog. No. 31350-010) and penicillin (50 i.u./ml), streptomycin (50 μg/ml) (Life Technologies. Catalog. No. 15070-063) was added immediately before the medium was used for culture. 2-mercaptoethanol (50 mM, stock) was aliquoted and stored frozen in 100 μl portions and was thawed just before use. […]

cAMP-PDEs = assay: Phosphodiesterase assay (cAMP-PDE activity in insulinoma cell fractions); type: biochemical, rat; settings: for inhibition of cAMP-PDEs: methylxanthine 2.5 mM, FIG. 8D
Description: Rat insulinoma cells were detached from the flasks by trypsin-EDTA. The cells were homogenized in Tris buffer containing (in mM): Tris 10, sucrose 250, EDTA 1.0, phenylmethylsulphonyl fluoride 0.01 and benzamidine 1.0The homogenates were centrifuged (48,000 g, 20 min, 4° C.). Both soluble extracts and the pellet were assayed for cAMP-PDE activity with 0.5 μM 2,8-[^3H]-cyclic AMP as substrate (see Ahmad, M. et al., Br.J.Pharmacol., 129, 1228-1234 (2000) and Thompson, W. J. and Appleman, M. M., Biochemistry, 10, 311-316 (1971)). Assays were performed by the two-step radiometric assay under linear rate formation of product and where less than 10% of substrate is utilized. Activity was expressed as pmol/min/ml and percentage inhibition of the control value.

β-cells = assay: Screening for CICR-active agents by periodic amplification of Ca2+ signals in single β-cells (fura-2 microfluorometry); type: cell-based, mouse
INS-1E cells [2] = assay: Insulin release from INS-1E cells (insulin ELISA); type: cell-based, rat
Description: Glucose-responsive clonal insulinoma cells (INS-1E) were cultured in RPMI-1640 medium supplemented with FBS (5%, v/v), penicillin (50 i.u. /ml), streptomycin (50 μg/ml), 2-mercaptoethanol (50 μM), HEPES (10 mM) and sodium pyruvate (1 mM) (Maechler, P. et al., IUBMB.Life 50, 27-31(2000). Medium was changed every other day.
INS-1E cells (200,000/ well) were seeded in 24-well plates and cultured for 6-7 days before using them for insulin release assay. On the day of experiment, cells were incubated in RPMI without glucose for 2 hours. Cells attached to the wells were then washed three times with warm (37° C.) medium (KRBH) containing (in mM): NaCl 140, NaHCO3 2, KCl 3.6, NaH2PO4 0.5, MgSO4 0.5, HEPES 10, CaCl2, 1.5, BSA 0.1% and incubated for 30 minutes at 37°. Cells were then incubated with 500 μl of the test solutions, by adding solution to one well at a time, every 20 sec. After one hour of incubation, 200 μl of supernatant was transferred to Eppendorf tubes, again one well at a time, every 20 sec. The collected materials were then centrifuged and supernatants were used for insulin ELISA.

[3] = methylxanthine 2.5 mM, 11.2 mM glucose, 1 hr, FIG. 8A/8C

Compound: Cn1c2cnccc2c2c(Br)c(O)c(Br)cc21 [MBED, 5,7-dibromo-6-hydroxy-9-methylpyrido[3,4-b]indole]
- potency relative to caffeine in increasing [Ca2+]i (INS-1E cells [1]): more potent than caffeine
- change in [Ca2+]i (INS-1E cells [1]; MBED 50 μM, FIG. 7): increased [Ca^2+]i
- potency relative to caffeine in islets (mouse islets; 6 μM MBED vs 2.5 mM caffeine): clearly more potent than caffeine
- reversal of stimulated secretion on wash out (lack of major toxic effect) (mouse islets; 11.2 mM glucose): reversed completely on wash out
- stimulation of insulin secretion from islets (mouse islets; 11.2 mM glucose): persistently stimulated both the first- and second-phases of insulin secretion
- CICR (periodic amplification of Ca2+ signals) (S5 cells): CICR can clearly be identified
- Cytosolic cAMP-PDE activity (cAMP-PDEs; MBED 5 μM): 27.7 ± 2.5 pmol/min/mL
- Membrane cAMP-PDE activity (cAMP-PDEs; MBED 5 μM): 26.5 pmol/min/mL
- Cytosolic cAMP-PDE activity (cAMP-PDEs; MBED 50 μM): 31.6 ± 0.7 pmol/min/mL
- Membrane cAMP-PDE activity (cAMP-PDEs; MBED 50 μM): 23.2 pmol/min/mL
- inhibition of PDEs (cAMP-PDEs; MBED 5 and 50 μM, Table 1): did not inhibit PDEs
- periodic amplified Ca2+ release in β-cells (summary of screening) (β-cells): elicit periodic amplified Ca^2+ release
- potency in stimulating insulin secretion relative to caffeine (INS-1E cells [2]; 11.2 mM glucose): about 400 times
- insulin secretion (INS-1E cells [2]; MBED 6 μM, 3 mM glucose, FIG. 5A): no stimulation of insulin secretion
- insulin secretion (INS-1E cells [2]; MBED 6 μM, 11.2 mM glucose, FIG. 5A): almost doubled the insulin secretion
- dose response of insulin secretion (INS-1E cells [2]; MBED 0.1 to 100 μM, 11.2 mM glucose, FIG. 5B): stimulated insulin secretion in a does-dependent manner

Compound: ryanodine
- effect on glucose-induced insulin secretion (INS-1E cells [2]; 100 μM ryanodine, 1 hr exposure): did not alter the glucose-induced insulin secretion
- insulin secretion rate (glucose-induced) (INS-1E cells [2]; 100 μM ryanodine, 1 hr exposure, n=4): 193±11 ng/10^6 cell/hr
- insulin secretion rate (INS-1E cells [2]; caffeine 0.75 mM plus 100 μM ryanodine): 354±34 ng/10^6 cell/hr

Compound: C/C=C(/C)C(=O)O[C@H]1C(C)=C2[C@H]([C@@H]1OC(=O)CCCCCCC)[C@@](C)(OC(C)=O)C[C@H](OC(=O)CCC)[C@@]1(O)[C@H]2OC(=O)[C@@]1(C)O [thapsigargin]
- basal insulin secretion (INS-1E cells [2]; thapsigargin-treated (Ca2+-depleted) cells): not different compared to that in controls cells
- effect on glucose-dependent caffeine-stimulated secretion (INS-1E cells [2]; thapsigargin-treated (ER Ca2+ depleted) cells, caffeine 0.75 mM, FIG. 11A): significantly reduced but not abolished

Compound: Cn1cnc2c(=O)[nH]c(=O)n(C)c21 [3,9-dimethylxanthine]
- insulin secretion rate (mouse islets; 11.2 mM glucose): 2.76±0.81 ng/min/50 islets
- stimulation of insulin secretion from islets (mouse islets; 11.2 mM glucose): no significant stimulatory effect
- inhibition of cAMP-PDEs (cAMP-PDEs): slightly less potent than caffeine in inhibiting cAMP-PDEs
- insulin secretion (INS-1E cells [2]; [3]): equally effective as caffeine in stimulating insulin secretion

Compound: Cn1c(=O)c2ncn(C)c2n(C)c1=O [isocaffeine]
- insulin secretion rate (mouse islets; 11.2 mM glucose): 1.36±0.35 ng/min/50 islets
- stimulation of insulin secretion from islets (mouse islets; 11.2 mM glucose): no significant stimulatory effect
- inhibition of cAMP-PDEs (cAMP-PDEs): did not inhibit cAMP-PDEs
- periodic amplification of Ca2+ signals (CICR) (β-cells; Example 6, FIG. 3: 10 mM glucose): gave rise to periodic amplifications of Ca^2+ signals
- insulin secretion (INS-1E cells [2]; [3]): stimulated insulin secretion significantly

Compound: glucagons-like peptide 1: test substance glucagons-like peptide 1 (HAEGTFTSDVSSYLEGQAAKEFIAWLVKGR; ends and bridges not checked; UniProt P01275 98-127, looked up)
- periodic amplification of Ca2+ signals (CICR) (β-cells; Example 5, FIG. 2: 30 mM KCl, 10 μM D600 or verapamil, 13 mM glucose): gave rise to periodic amplification of Ca^2+ signals

Compound: O=C1CN(/N=C/c2ccc(-c3ccc([N+](=O)[O-])cc3)o2)C(O)=N1 [dantrolene]
- effect on glucose-dependent stimulation of insulin secretion by caffeine (INS-1E cells [2]; dantrolene 75 μM, FIG. 11B): abolished
